Reference: the NIST ThermoML archive (doi:10.1016/j.fluid.2012.07.032)
± gives the expanded uncertainty stated by the source.

How the values were obtained:
[1] = refractive index (Na D-line) (dimensionless); details: 101.33 kPa, Liquid, Standard Abbe refractometry
[2] = 101.33 kPa, Liquid, Vibrating tube method

| SMILES | refractive index ([1]; 288.2 K) | refractive index ([1]; 303.2 K) | refractive index ([1]; 318.2 K) | mass density ([2]; 288.2 K) [kg/m3] | mass density ([2]; 303.2 K) [kg/m3] | mass density ([2]; 318.2 K) [kg/m3] |
| --- | --- | --- | --- | --- | --- | --- |
| O=Cc1ccco1 [2-furaldehyde] | 1.528 ± 0.0004 | 1.5206 ± 0.0004 | 1.5133 ± 0.0004 | 1165.24 ± 0.37 | 1149.77 ± 0.35 | 1133.83 ± 0.34 |
| CCCCO [butan-1-ol] | 1.4013 ± 0.0004 | 1.3952 ± 0.0004 | 1.3892 ± 0.0004 | 813.82 ± 0.14 | 802.407 ± 0.14 | 790.724 ± 0.15 |
| CCOC(C)=O [ethyl acetate] | 1.3749 ± 0.0004 | 1.3672 ± 0.0004 | 1.3594 ± 0.0004 | 906.89 ± 0.11 | 888.196 ± 0.12 | 869.522 ± 0.12 |
| CCCOC(C)=O [propyl ethanoate] | 1.3866 ± 0.0004 | 1.3792 ± 0.0004 | 1.3717 ± 0.0004 | 894.325 ± 0.082 | 877.529 ± 0.089 | 860.512 ± 0.095 |
| O [water] | 1.3334 ± 0.0004 | 1.3319 ± 0.0004 | 1.3298 ± 0.0004 | – | – | – |
